Legend:
HUVEC = HUVEC proliferation assay ([3H]thymidine incorporation); type: cell-based, human; details: HUVEC; for Proliferation (IC50/IC50 Itra): IC50 of analog relative to IC50 of itraconazole
Description: The activity of the analogs against HUVEC proliferation, an in vitro proxy for angiogenesis inhibition (Table 3) was analyzed. […]
Pooled HUVEC (Lonza) were grown in EGM-2 bullet kit media (Lonza) and used at passage eight or lower. The proliferation assays were conducted as previously described (Nacev, B.; Low, W. K.; Huang, Z.; Su, T.; Su, Z.; Alkuraya, H.; Kasuga, D.; Sun, W.; Trager, M.; Braun, M.; Fischer, G.; Zhang, K.; Liu, J. O., Acalcineurin-independent mechanism of angiogenesis inhibition by anon-immunosuppressive Cyclosporin Aanalog. J. Pharmacol. Exp. Ther. 2011, DOI:10.1124/jpet.111.18085).

Gli1 transcript = experiment: Quantification of Gli1 transcript by TaqMan analysis in MB cells (Hh pathway); type: cell-based, mouse; details: Gli1 transcript fold induction score; MB cells exposed 24 h at the IC90 for MB proliferation
Excerpt: Inhibitors of the Hh pathway are known to inhibit MB cell proliferation. However, MB cell proliferation is also affected by drugs with targets other than Hh signaling.
Following drug exposure, cells were washed in PBS and pelleted by centrifugation at 300×g. Cell pellets were lysed in Trizol reagent (Invitrogen). Total RNA was separated and collected in the aqueous phase following centrifugation of lysate in the presence of chloroform. Total RNA was ethanol precipitated and purified over RNeasy Mini Kit (Qiagen) filter columns per manufacturer's recommendations. Transcript levels were quantified using gene-specific TaqMan primer/probe sets and the StepOne Plus Real-Time PCR system (Applied Biosystems) on cDNA reverse transcribed using the QuantiTect Reverse Transcription Kit (Qiagen) per manufacturers' recommendations. Results were quantified using StepOne Plus software v2.1 (Applied Biosystems) and were expressed as fold induction relative to control samples using the A ΔCt (2^−ΔΔCt) method with actin as an internal control. The primer/probe set (Applied Biosystems) for TaqMan PCR for mouse Gli-1 was Mm00494645_m1, and for mouse actin was Mm00607939_s1.

VEGFR2 = VEGFR2 glycosylation in HUVEC (Western blot scoring); type: cell-based, human; details: VEGFR2 hypoglycosylation score in HUVEC, 2 μM, 24 h
Description: VEGFR2 hypoglycosylation was scored either robust (++), intermediate (+), or absent (−) (FIG. 6).
HUVEC were seeded at 5×10^4 per well of a 6-well plate in 3 mL of media. After an overnight recovery, the media was replaced with 2 mL fresh media and the analogs were added from 200× stocks in DMSO. Following a 24-h incubation, the media was aspirated and 2×SDS sample buffer was added to the cells which were incubated on ice for 10 min and then boiled for 10 min. […] Following three washes in TBS-T, the membrane was incubated with anti-rabbit horseradish peroxidase conjugated IgG (GE Healthcare) (1:5000-1:10000 dilution) in 1% BSA in TBS-T. The membranes were washed three times in TBS-T, incubated for 1-5 minutes with ECL substrate (Immobilon Wester, Milipore) and visualized (Kodak Image Staion 440 CF).

[1] = system: MB cultures derived from Ptch−/+; p53−/− mice; experiment: Medulloblastoma (MB) proliferation assay; type: cell-based, mouse; details: mouse medulloblastoma cultures, 96 h; relative to itraconazole
Excerpt: These cultures were derived from Ptch^−/+; p53^−/− mice that spontaneously develop medulloblastoma associated with ligand independent Hh pathway activation.
MB cultures were derived from mouse Ptch^−/+; p53^−/− MB grown as hind-flank allografts in nude mice (Harlan). Briefly, tumors were mechanically disrupted and made into single cell suspensions by two passages through a 70 μm nylon filter. Cells were pelleted by centrifugation and resuspended in PBS pH 7.4 twice. The cell suspension was then subjected to centrifugation at 1000×g for 25 min over a ficoll gradient. The viable cell layer formed at the ficoll boundary was then collected, suspended in PBS, and pelleted by centrifugation. The resulting pellet was then suspended and cultured as “neurospheres” in Neurobasal Media-A supplemented with retinoic acid deficient B-27 extract (NBMedia). Cells were cultured for three passages, with neurospheres disaggregated using Accumax (Innovative Cell Technologies) between passages.
Cultured MB neurospheres were disaggregated as described and 1×10^4 cells were seeded into wells of a 96-well assay plate in NBMedia and exposed to multiple analogue concentrations: Relative cell numbers following a 96-h incubation were quantified by CellTiter 96® AQueous One Solution Cell Proliferation Assay (Promega) per manufacturer's recommendations using a SpectraMax M2e spectrophotometer and SoftMax Pro software (Molecular Devices). Data was analyzed using Prism5 (GraphPad Software) and IC50 and IC90 values were determined from dose-response curves fitted to mean corrected absorbance normalized to control treatment.

| SMILES | Proliferation (EC50/IC50 Itra) (HUVEC; footnote g: EC50 of analog relative to IC50 of itraconazole) | Gli I Inhibition (IC90 Prolif. dose) (Gli1 transcript) | Glycosylation (2 μM dose) (VEGFR2) | MB Proliferation (IC50/IC50 Itra) [1] | Proliferation (IC50/IC50 Itra) (HUVEC) |
| --- | --- | --- | --- | --- | --- |
| CC1(CCCCCCCn2ncn(-c3ccc(N4CCN(c5ccc(OCC6COC(Cn7cncn7)(c7ccc(Cl)cc7Cl)O6)cc5)CC4)cc3)c2=O)N=N1 [Compound 7x, cis-(2S,4R)-4-[4-[4-[4-[[2-(2,4-Dichlorophenyl)-2-(1H-1,2,4-triazol-1-ylmethyl)-1,3-dioxolan-4-yl]methoxy]phenyl]-lpiperazinyl]phenyl]-2,4-dihydro-2-(7-(3-methyl-3H-diazirin-3-yl)heptyl)-3H-1,2,4-triazol-3-one] | 1.1^g | − (≥0.45) | − | 1.18 |  |
| O=c1n(-c2ccc(N3CCN(c4ccc(OCC5COC(Cn6cncn6)(c6ccc(Cl)cc6Cl)O5)cc4)CC3)cc2)cnn1C1CCCCC1 [Compound 7k, cis-(2S,4R)-4-[4-[4-[4-[[2-(2,4-Dichlorophenyl)-2-(1H-1,2,4-triazol-1-ylmethyl)-1.3-dioxolan-4-yl]methoxy]phenyl]-lpiperazinyl]phenyl]-2,4-dihydro-2-(1-cyclohexyl)-3H-1,2,4-triazol-3-one] |  | − (≥0.45) | ++ | 0.37 | 0.44 |
| CCC1(Cn2ncn(-c3ccc(N4CCN(c5ccc(OCC6COC(Cn7cncn7)(c7ccc(Cl)cc7Cl)O6)cc5)CC4)cc3)c2=O)COC1 [Compound 7v, cis-(2S,4R)-4-[4-[4-[4-[[2-(2,4-Dichlorophenyl)-2-(1H-1,2,4-triazol-1-ylmethyl)-1,3-dioxolan-4-yl]methoxy]phenyl]-lpiperazinyl]phenyl]-2,4-dihydro-2-((3-ethyloxetan-3-yl)methyl)-3H-1,2,4-triazol-3-one] |  | + (0.16 to 0.44) | ++ | 0.74 | 0.77 |
| O=c1[nH]ncn1-c1ccc(N2CCN(c3ccc(OC[C@H]4CO[C@](Cn5cncn5)(c5ccc(Cl)cc5Cl)O4)cc3)CC2)cc1 [Compound 17a, 4-(4-(4-(4-(((2R,4S)-2-((1H-1,2,4-triazol-1-yl)methyl)-2-(2,4-dichlorophenyl)-1,3-dioxolan-4-yl)methoxy)phenyl)piperazin-1-yl)phenyl)-1H-1,2,4-triazol-5(4H)-one] |  | ++ (≤0.15) | − | 0.89 | 2.78 |
| CCC#CCCn1ncn(-c2ccc(N3CCN(c4ccc(OCC5COC(Cn6cncn6)(c6ccc(Cl)cc6Cl)O5)cc4)CC3)cc2)c1=O [Compound 7o, cis-(2S,4R)-4-[4-[4-[4-[[2-(2,4-Dichlorophenyl)-2-(1H-1,2,4-triazol-1-ylmethyl)-1,3-dioxolan-4-yl]methoxy]phenyl]-lpiperazinyl]phenyl]-2,4-dihydro-2-(hex-3-ynyl)-3H-1,2,4-triazol-3-one] |  | ++ (≤0.15) | − | 1.07 | 1.09 |
| [N-]=[N+]=NCCCCCCn1ncn(-c2ccc(N3CCN(c4ccc(OCC5COC(Cn6cncn6)(c6ccc(Cl)cc6Cl)O5)cc4)CC3)cc2)c1=O [Compound 7p, cis-(2S,4R)-4-[4-[4-[4-[[2-(2,4-Dichlorophenyl)-2-(1H-1,2,4-triazol-1-ylmethyl)-1,3-dioxolan-4-yl]methoxy]phenyl]-lpiperazinyl]phenyl]-2,4-dihydro-2-(6-azidohexyl)-3H-1,2,4-triazol-3-one] |  | + (0.16 to 0.44) | + | 0.70 | 0.30 |
